# US6753171B2, “Site-specific cell perforation technique” (Center for Advanced Science and Technology Incubation, Ltd., priority 1998, dated 2004)
# Experiments:
# [1] = tested on: nerve cell line PC12; test: Measurement of membrane resistance and membrane potential following light exposure (patch clamp); type: cell-based; details: for change in cell membrane resistance/membrane potential following light exposure: 363 nm argon ion laser
# Protocol: Since there is a need to monitor cellular level micro membrane damages, including the recovering process within seconds to a few minutes, the intermembrane potential of the cell membrane, or the ionic current passing through the cell membrane was measured using the patch clamp method, which is an electrophysiology experiment technique.
# The photosensitizer BAT was dispersed in HEPES (25 mM,pH7.4) buffer.
# Cells were incubated at room temperature within an electrophysiology experimental culture medium.
# 2H2O, 2.4 mM; MgSO4. 7H2O, 1.3 mM; glucose 10 mM, in which the pH was adjusted to […] by finally adding NaOH. To prevent any influence due to evaporation, the electrophysiology experiment culture medium was changed every 40 min at the latest by a pipette.
# BAT was added to a final concentration of 49 μM. Exposed light quantity was in three stages, being 0.47 J/cm^2, 0.94 J/cm^2, and 1.57 J/cm^2.
# The solution within the patch electrodes had the composition of KCl 132 mM, NaCl, 8 mM, MgCl2, 2 mM, HEPES 30 mM, Na2ATP 4 mM, GTP 0.3 mM, and EGTA 0.5 mM, in which the pH was adjusted to 7.3 by finally adding NaOH.
# As the excitation power source, 50 mW, 363 nm argon ion laser standardly equipped within a confocal laser scanning microscope (CLSM) MRC-1000 UV (BIO-RAD laboratories) was used. 1/16th (¼^th to the direction of the X axis and Y axis, 117 μm×170 μm) of the full screen of the microscope is scanned with the above-described laser beams. Adjustments were done so that the whole image of the patched target cell came into this area. 50 mW laser beam is a 100% output. According to the scanning speed, the exposed duration was selected from 1/16, ¼, 1/32 sec. The light reduction by the lens was also utilized. When the zoom function was used, the light is scanned on a concentrated area smaller than the normal area, and therefore, the light quantity per unit area increases in proportion to the square of the zoom magnification. Since the excitation light has to pass through the plastic of the collagen-coated dish before reaching the cells, there is a necessity to consider light reduction.
# Also, in the excitation light exposure, a TTL signal coupled with an electrophysiological recording is suitably transmitted to the excitation light source, to synchronize the exposure and electrical measurement.
# At the start of the electrophysiological experiment, the cell membrane potential was maintained between −80 to −60 mV. The resistance of the patch electrode was 3˜4 MΩ, and the above described solution was filled into electrodes, and used.
# As for the amplifier for cell membrane potential measurement, Axopatch 1-D (Axon Instruments) was used. The membrane resistance was calculated by the change in membrane potential when a 1 Hz rectangular hyperpolarizing current was passed through for 350 mili sec. […] The measured potential/current value was analyzed by Axoscope ver. 1.1 software (Axon Instruments).
# Membrane resistance reflects membrane permeation inhibiting capacity, and membrane potential reflects the active ion transport capacity due to the functions of various intermembrane ion transportation systems and ion permeation inhibiting capacity.
# A microinjector was connected to a micro glass pipette held by a micromanipulator, and BAT dispersed solution (BAT concentration was 2 mM, aqueous solvent) was filled into this micro glass pipette. The tip of this glass pipette was connected to a patch electrode and setup within 200 μm proximity of the cells in which the membrane potential/membrane resistance was to be measured. BAT dispersed solution was released by compressing the micro glass pipette to attach BAT onto the cell membrane of target cells.
# [2] = tested on: PC12 cells; test: Microinjection treatment using site-specific membrane disruption: success rate of Lucifer Yellow injection; type: cell-based; details: BAT 100 μM in injection solution, capillary approach speed 7 μm s^-1, n=30
# Protocol: To determine the success or failure of microinjection treatment, Lucifer Yellow CH(LY), a water-soluble fluorescent dye, was added to the injection solution. After injection treatment, if a yellow fluorescence of LY origin was observed within the cell by a fluorescent microscope, then, the injection treatment was judged to have been successful. The variation of the success rate of cell injection was evaluated by the presence or absence of the photosensitizer BAT within the injection solution, and the presence or absence of a BAT excitation light exposure.
# Normally, to make microinjection successful, a glass capillary having an opening with a diameter of a few hundred nanometers should be contacted with cells at high speed, to instantly penetrate/perforate the cell membrane or the nucleus membrane physically. […] The micromanipulator was attached to a fluorescence microscope (OLYMPUS OPTICAL, IX70 fluorescence microscope spec). Light of a 100 W […], which is the epi-illumination fluorescence light source equipped in the microscope, was treated by transmitting through an ultraviolet ray excitation filter set (OLYMPUS OPTICAL, U-MWU mirror unit), and the resulting ultraviolet light was used as the excitation source of the photosensitizer. […]
# [3] = tested on: PC12 cells; test: Cell survival rate after injection treatment (LY maintaining rate); type: cell-based
# Protocol: The survival rate of cells to which microinjection treatment by a physical shear force was given, and that for photosensitizing microinjection treated cells were compared.
# LY was injected into cells by microinjection. In dead cells in which the cell membrane had collapsed, LY rapidly diffuses, and staining is lost (Cell, 14, 741-759 (1978)). Therefore, LY maintaining rate of injection treated cells was used as an indicator of cell survival rate, and the survival rate after 3 to 6 days following injection treatment was compared.
# [4] = Solubility of BAT in aqueous solution; type: physicochemical; details: within acidic aqueous solutions (bivalent positive charge)
# Text: The thiophene oligomer having amino-methyl residue at the terminal, has a high solubility compared with other derivatives of the same type because of this amino-methyl residue. Solubility changes with the dissociation state of this amino-methyl residue. […] In aqueous solutions near a pH region suitable for the body (around 7.4), it has a feature of having both positively-charged monovalent BAT maintaining a high solubility, and non-charged BAT that agglutinates easily into a colloid state. Under this pH condition, by perfusing cells within a BAT-dispersed solution, this molecule can easily attach onto the cell surface. The hydrophilicity of BAT molecule is a novel feature that is not seen in either modified thiophene oligomers starting with α-terthienyl, or in other molecules designed as conductive high molecular monomers.
structure (smiles),measurement,setting,value
"NCc1ccc(-c2ccc(-c3ccc(CN)s3)s2)s1 [BAT, 5′5″-bis(aminomethyl)-2,2′:5′,2″-terthiophene]",change in cell membrane resistance/membrane potential following light exposure,"[1]; BAT 49 μM, light quantity 0.47 J/cm^2 (A)",a big change was not seen
same,change in cell membrane resistance/membrane potential following light exposure,"[1]; BAT 49 μM, light quantity 0.94 J/cm^2 (B)",a decrease in cell membrane resistance/depolarization of the membrane potential occurred
same,change in cell membrane resistance/membrane potential following light exposure,"[1]; BAT 49 μM, light quantity 1.57 J/cm^2 (C)",both disappeared
same,time to disappearance of cell membrane resistance/membrane potential,"[1]; BAT 49 μM, light quantity 1.57 J/cm^2 (C), after a few second lag period",8 s
same,cell membrane potential after laser exposure,[1]; BAT 2 mM dispersed solution sprayed onto target cells by micro glass pipette (Example 4),depolarization of the cell membrane potential was observed
same,change in membrane resistance when only the axon of the cell was exposed to laser beams,[1]; only the axon exposed,a similar change in membrane resistance was observed
same,success rate of the injection,[2]; 2 min ultraviolet exposure,80%
same,success rate of the injection,[2]; no light exposure,13%
same,cell survival rate (LY retention rate),"[3]; BAT+LY without UV, 3rd day following treatment",30%
same,cell survival rate (LY retention rate),"[3]; BAT+LY+UV photosensitizing injection, three to six days following injection treatment",90%
same,solubility,[4],dissolves easily
